Laboratory results: the supplement of paper PMC10307832

Experiments:
Assay in all cases: relative viability (nuclei count vs DMSO), 5 days (fraction); higher = more cells survive
[1] = compound: CC1=C(C=C(C=C1)NC(=O)C2=CC(=CC=C2)C(C)(C)C#N)NC3=CC4=C(C=C3)N=CN(C4=O)C [AZ628] + CS(=O)(=O)N1CCN(Cc2cc3nc(-c4cccc5[nH]ncc45)nc(N4CCOCC4)c3s2)CC1 [Pictilisib] (partner 1 µM)
Method in brief: (§1)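 Values are medians from duplicate plates. Each reflects relative viability, defined as the nuclei count of treated wells over that of vehicle wells. Lung cancer cell lines in 1536-well plates were pin-tool dosed one day after seeding with one drug alone or with a fixed anchor-drug dose plus five library-drug doses (not always all listed) in √10 steps, then fixed, stained and imaged at 4× after 5 days.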

[2] = compound: C1CC2=C(C1)C=C(C=C2)OC3=NC(=C4C(=N3)N(C=N4)CC5=CC=C(C=C5)C6=CC=CC=C6)N[C@@H](CC7=CC=CC=C7)CO [QS11] + Cc1nc(Nc2ncc(C(=O)Nc3c(C)cccc3Cl)s2)cc(N2CCN(CCO)CC2)n1 [Dasatinib] (partner 0.075 µM)
Method in brief: as §1

[3] = compound: C[As](C)SC[C@H](NC(=O)CC[C@H](N)C(=O)O)C(=O)NCC(=O)O [Darinaparsin] + CCNC(=O)c1noc(-c2cc(C(C)C)c(O)cc2O)c1-c1ccc(CN2CCOCC2)cc1 [Luminespib] (partner 0.01 µM)
Method in brief: as §1

[4] = compound: C[As](C)SC[C@H](NC(=O)CC[C@H](N)C(=O)O)C(=O)NCC(=O)O [Darinaparsin] + CS(=O)(=O)CCNCc1ccc(-c2ccc3ncnc(Nc4ccc(OCc5cccc(F)c5)c(Cl)c4)c3c2)o1 [Lapatinib] (partner 2 µM)
Method in brief: as §1

Cell Line	relative viability ([1]; first compound 0.08 µM)	relative viability ([1]; first compound 0.253 µM)	relative viability ([1]; first compound 0.8 µM)	relative viability ([1]; first compound 2.53 µM)	relative viability ([1]; first compound 8 µM)	relative viability ([2]; first compound 0.08 µM)	relative viability ([2]; first compound 0.253 µM)	relative viability ([2]; first compound 0.8 µM)	relative viability ([2]; first compound 2.53 µM)	relative viability ([2]; first compound 8 µM)	relative viability ([3]; first compound 0.08 µM)	relative viability ([3]; first compound 0.8 µM)	relative viability ([3]; first compound 2.53 µM)	relative viability ([3]; first compound 8 µM)	relative viability ([4]; first compound 0.08 µM)	relative viability ([4]; first compound 0.8 µM)	relative viability ([4]; first compound 2.53 µM)	relative viability ([4]; first compound 8 µM)
201T	0.688	0.659	0.691	0.71	0.723	0.57	0.543	0.561	0.599	0.376	1.1	1.03	0.958	1.16	1.05	1.03	1.02	0.76
A549	0.473	0.378	0.311	0.406	0.138	–	–	–	–	–	–	–	–	–	1.45	1.05	1.01	1.06
A-427	0.43	0.364	0.333	0.177	0.132	0.646	0.718	–	0.708	0.729	1.24	0.967	0.803	1.4	1.08	1.06	1.04	1.22
ABC-1	0.764	0.828	0.677	0.643	0.486	0.577	0.436	–	0.605	0.571	0.358	0.608	1.04	0.676	1.11	1.18	1.16	1.47
BEN	0.621	0.523	0.487	0.49	0.458	0.29	0.37	0.352	0.325	0.33	0.409	0.366	0.511	0.522	0.844	0.77	0.671	0.743
CAL-12T	0.393	–	0.416	0.298	0.505	0.4	0.365	0.466	0.368	0.334	0.182	0.429	0.429	0.761	0.698	0.557	0.775	0.68
COR-L23	0.767	0.73	0.651	0.653	0.346	0.505	0.59	0.552	0.358	0.355	1.12	0.64	0.661	0.64	1.41	0.811	0.716	1.16
COR-L 105	0.466	0.418	0.384	0.353	0.334	0.281	0.267	0.334	0.423	0.331	0.867	0.775	0.712	0.682	0.388	0.388	–	0.349
Calu-6	0.896	0.64	0.409	0.553	0.144	–	–	–	–	–	–	–	–	–	1.45	1.14	1.09	1.06
ChaGo-K-1	0.889	–	0.474	0.756	0.743	0.41	0.556	0.518	0.655	0.618	0.692	0.502	0.55	0.786	–	–	–	–
EBC-1	0.341	0.299	0.271	0.233	0.201	–	–	–	–	–	–	–	–	–	0.2	0.211	0.246	0.223
EKVX	0.487	0.489	0.471	0.472	0.333	0.529	0.503	0.512	0.505	0.589	0.872	0.924	0.926	0.962	0.188	0.165	0.234	0.216
EMC-BAC-2	0.511	0.476	0.455	0.459	0.466	0.341	0.337	0.376	0.285	0.269	0.763	1.15	1.16	1.49	0.858	0.924	0.949	1.05
EPLC-272H	0.273	0.232	0.236	0.266	0.231	–	0.394	0.35	0.257	0.333	–	0.176	0.328	0.191	1.02	0.935	0.923	0.93
H3255	0.457	0.499	0.463	0.398	0.225	0.319	0.394	–	0.369	0.402	0.88	0.94	0.807	0.95	0.253	0.28	0.25	0.216
HARA	0.331	0.379	0.283	0.337	0.287	0.294	0.281	–	0.221	0.307	1.19	0.684	0.659	0.773	0.77	0.692	0.649	0.755
HCC-15	0.729	0.533	0.52	0.553	0.33	0.649	0.611	0.532	0.73	0.49	0.461	0.253	0.326	0.467	1.04	0.76	0.81	1.11
HCC-44	0.547	0.512	0.427	0.354	0.286	–	–	–	–	–	1.47	1.12	0.954	0.804	1.24	1.04	0.903	1.08
HCC-78	0.373	0.21	0.211	0.228	0.231	0.432	0.395	0.491	0.558	0.67	–	–	–	–	0.76	0.58	0.704	0.885
HCC-366	0.15	0.18	0.0993	0.126	0.0787	0.7	0.616	–	0.578	0.576	–	–	–	–	1.63	0.95	1.03	1.67
HCC-827	0.98	0.994	0.988	0.984	0.826	0.244	0.26	0.386	0.305	0.328	0.812	0.704	0.59	0.936	0.198	0.184	0.153	0.176

Cell Line	relative viability ([1]; first compound 0.08 µM)	relative viability ([1]; first compound 0.253 µM)	relative viability ([1]; first compound 0.8 µM)	relative viability ([1]; first compound 2.53 µM)	relative viability ([1]; first compound 8 µM)	relative viability ([2]; first compound 0.08 µM)	relative viability ([2]; first compound 0.253 µM)	relative viability ([2]; first compound 0.8 µM)	relative viability ([2]; first compound 2.53 µM)	relative viability ([2]; first compound 8 µM)	relative viability ([3]; first compound 0.08 µM)	relative viability ([3]; first compound 0.8 µM)	relative viability ([3]; first compound 2.53 µM)	relative viability ([3]; first compound 8 µM)	relative viability ([4]; first compound 0.08 µM)	relative viability ([4]; first compound 0.8 µM)	relative viability ([4]; first compound 2.53 µM)	relative viability ([4]; first compound 8 µM)
HOP-62	0.607	0.6	0.511	0.441	0.211	0.695	0.667	0.708	0.615	0.706	1.1	0.811	0.793	1.09	1.12	1.01	0.97	1.29
IA-LM	0.352	0.231	0.155	0.145	0.115	–	–	–	–	–	–	–	–	–	1.25	0.658	1.32	1.07
LC-2-ad	0.472	0.344	0.122	0.261	0.162	0.535	0.537	0.614	0.693	0.79	1.11	1.02	0.797	0.734	1.14	0.863	0.892	1.08
LCLC-103H	0.554	0.587	0.632	0.55	0.583	0.403	0.511	0.447	0.601	0.576	1.14	0.876	0.882	1.22	–	–	–	–
LK-2	0.577	0.824	0.443	0.481	0.311	0.287	0.321	0.317	0.268	0.306	0.175	–	0.173	0.174	0.978	0.622	0.926	1.05
LOU-NH91	0.582	0.491	0.492	0.501	0.452	0.56	0.51	0.524	0.628	0.602	0.407	0.31	0.306	0.345	0.848	0.647	0.705	0.795
LU99A	0.274	0.306	0.362	0.331	0.205	0.463	0.587	0.685	0.684	0.681	0.228	0.24	0.241	0.222	1.03	0.942	0.923	1.22
LXF-289	0.779	0.712	0.754	0.654	0.401	0.228	0.263	0.241	0.291	0.191	0.773	0.499	0.578	1.06	0.968	0.874	0.765	1.08
NCI-H23	0.407	0.319	0.261	0.312	0.246	0.809	0.673	0.738	0.654	0.712	0.212	–	0.217	0.193	1.54	0.999	1.22	1.38
NCI-H322M	0.554	0.473	0.482	0.469	0.412	0.264	0.261	0.27	0.292	0.318	1.01	0.859	0.596	0.839	0.611	0.603	0.52	0.603
NCI-H358	0.341	0.289	0.286	0.308	0.349	0.144	0.171	0.189	0.393	0.656	0.416	0.332	–	0.344	0.463	0.412	0.422	0.52
NCI-H441	0.417	0.45	0.444	0.403	0.283	0.802	0.689	0.496	0.786	0.827	0.488	0.321	0.364	0.245	–	–	–	–
NCI-H460	0.323	0.25	0.254	0.269	0.127	0.523	0.462	0.329	0.359	0.291	0.0325	0.033	0.0441	0.0347	1.03	1.3	0.731	–
NCI-H520	0.312	0.313	0.273	0.212	0.204	0.186	0.254	0.191	0.208	0.167	0.219	0.21	0.222	0.192	1.11	0.817	0.802	0.794
NCI-H522	–	–	–	–	–	0.857	0.826	0.922	0.975	1.07	1.1	1.22	1.28	1.15	–	–	–	–
NCI-H596	0.36	0.383	0.382	0.376	0.42	0.591	0.586	0.584	0.611	0.586	1.14	1.12	0.951	0.966	1.1	1.02	1.01	1.06
NCI-H1299	0.643	0.464	0.306	0.283	0.167	–	–	–	–	–	–	–	–	–	1.09	0.955	0.958	0.853
NCI-H1623	–	–	–	–	–	0.502	0.567	0.66	0.544	0.641	0.538	0.572	0.496	0.43	–	–	–	–
NCI-H1703	0.231	0.235	0.235	0.197	0.251	–	–	–	–	–	–	–	–	–	–	1.18	1.29	1.18
NCI-H2342	–	–	–	–	–	0.318	0.323	0.299	0.35	0.348	0.773	0.8	0.813	0.826	–	–	–	–
SW 900	–	–	–	–	–	0.629	0.529	0.428	0.417	0.521	0.169	0.169	0.17	0.166	–	–	–	–
